One experiment has as its target T1, H-2D^b (Mus musculus, UniProt P01899).
T1 sequence (P01899 25-362): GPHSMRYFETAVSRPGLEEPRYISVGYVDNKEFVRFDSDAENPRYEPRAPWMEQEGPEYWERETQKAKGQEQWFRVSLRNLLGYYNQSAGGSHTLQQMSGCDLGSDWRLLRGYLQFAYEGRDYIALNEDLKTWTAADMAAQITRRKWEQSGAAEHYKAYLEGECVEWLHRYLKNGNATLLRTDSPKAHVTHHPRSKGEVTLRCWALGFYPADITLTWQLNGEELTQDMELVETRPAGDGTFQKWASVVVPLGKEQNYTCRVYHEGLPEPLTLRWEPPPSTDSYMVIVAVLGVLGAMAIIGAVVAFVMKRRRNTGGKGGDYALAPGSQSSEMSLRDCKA
T1 sequence (P01887 21-119 partner): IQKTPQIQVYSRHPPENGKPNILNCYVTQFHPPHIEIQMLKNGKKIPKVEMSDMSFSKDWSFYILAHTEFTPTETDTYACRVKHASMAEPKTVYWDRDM
To be noted: MHC allele H-2D^b, cited from earlier work.

In another experiment the target is T2, H-2K^b (Mus musculus, UniProt P01901).
T2 sequence (P01901 22-369): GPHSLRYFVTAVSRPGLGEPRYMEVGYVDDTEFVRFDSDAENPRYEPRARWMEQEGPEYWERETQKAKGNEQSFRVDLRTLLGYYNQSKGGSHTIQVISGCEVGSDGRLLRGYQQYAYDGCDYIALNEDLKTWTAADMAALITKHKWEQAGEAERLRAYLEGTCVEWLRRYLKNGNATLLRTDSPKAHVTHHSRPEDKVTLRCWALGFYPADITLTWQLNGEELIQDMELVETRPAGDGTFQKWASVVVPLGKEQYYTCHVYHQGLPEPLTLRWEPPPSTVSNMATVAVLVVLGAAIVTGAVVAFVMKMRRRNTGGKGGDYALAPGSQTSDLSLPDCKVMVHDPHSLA
T2 sequence (P01887 21-119 partner): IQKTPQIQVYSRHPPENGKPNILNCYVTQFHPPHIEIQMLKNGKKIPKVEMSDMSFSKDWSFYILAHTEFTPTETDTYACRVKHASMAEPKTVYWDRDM
To be noted: MHC allele H-2K^b, cited from earlier work.

The target of experiment [1] is PD-L1 protein (Abcam, ab130039) (UniProt Q9EP73). In words: competitive ELISA: PD-L1-coated plate, displacement of mouse PD-1-biotin. (In general: An ELISA detects its analyte on a solid surface through an enzyme-linked reagent.)
For experiment [2], the system named is K562/PD-L1, U251/PD-L1, H226/PD-L1 target cells. In words: ADCC assay (Jurkat effector cells). To be noted: any of the PD-L1-expressed target cell lines. It counts as cell-based, human. The procedure: ADCC assay: Purified ihPDL1 was analyzed with ADCC kit according to the manufacturer's instruction (Promega, Madison, Wis.).
The next experiment deals with T3, PD-1/PD-L1 interaction (Homo sapiens, UniProt Q9NZQ7).
T3 construct: purchased BPS Bioscience
It counts as binding. To be noted: purified ihPDL1 at the tested concentrations.

Experiment [3] has as its target PD-L1 (Homo sapiens, UniProt Q9NZQ7). In words: Surface plasmon resonance (SPR)-binding assay. To be noted: immobilized PD-L1-His tag protein. As to the method:
Surface plasmon resonance (SPR)-binding assays: The assays were carried out at 25° C. using a Biacore T100 (USC NanoBiophysics Center). CMS sensor chips were activated by a 7 min injection of a 1:1 mixture of N-hydroxysuccinimide and 1-ethyl-3-(3-dimethylaminopropyl) carbodiimide hydrochloride at a flow rate of 10 μL/min. The PD-L1-His tag protein was prepared at a concentration of 10 μg/mL in 10 mM acetate buffer, pH 4.0, and immobilized to the sensor chips by amine linkage, with the typical immobilization levels being 100 response units. For blocking sensor chips, 70 μL of 1M ethanolamine-HCl buffer, pH 8.5, was injected and the chips were further washed with 10 μL of 10 mM glycine-HCl buffer, pH 1.5. For analyzing the binding and equilibrium affinity of ihPDL1 or a-PD-L1 antibody (biolegend, cat 329702), 5 serial dilutions of ihPDL1 starting from 200 μg/mL, or 6 serial dilutions of α-PD-L1 antibody starting from 100 μg/mL were injected at a flow rate of 30 μL/min over the sensor chips coupled with PD-L1 protein. The data sets were analyzed using a model for 1:1 binding.

The target in another experiment is T4, PD-L1^+ tumor cells (Homo sapiens, UniProt Q9NZQ7).
T4 construct: endogenous in cells; host or cells: IFN-γ-stimulated U251 or H226
It counts as cell-based. To be noted: PD-L1-transduced 293T or K562, IFN-γ pre-stimulated H226 or U251.

Experiment [4] concerns T-cells from healthy PBMCs with allogeneic mature DCs. It counts as cell-based, human. To be noted: purified ihPDL1 at 0.01 μg/mL, 0.1 μg/mL, or 1 μg/mL.
The target of experiment [5] is T5, PD-L1 on MC38 tumor cells (Mus musculus, UniProt Q9EP73).
T5 construct: endogenous in cells; host or cells: MC38 (wild type, IFN-γ stimulated, or PD-L1 shRNA knock-down as negative control)
It counts as cell-based.

Experiment [6] has as its target T6, PD-L1 (Mus musculus, UniProt Q9EP73).
T6 construct: from tissue; host or cells: single-cell suspensions of treated and distant MC38 tumours from C57BL/6 mice
It counts as in vivo. To be noted: MC38, untreated distant tumors.

Another experiment deals with PD-1+ CD8+ T cells. To be noted: purified iPDL1 in comparison to control IgG.
The target of experiment [7] is PD-L1 protein (Abcam, ab130039) (UniProt Q9EP73 19-238). In words: competitive ELISA: PD-L1-coated plate, displacement of mouse PD-1-biotin.
[8] abbreviates: mutant peptide, read-out: IC50 (mutant).
[9] abbreviates: wild type peptide, read-out: IC50 (Wild Type).

These results are taken from patent publication US20220064672A1, “ENGINEERED ONCOLYTIC VIRUSES EXPRESSING PD-L1 INHIBITORS AND USES THEREOF” (priority 2020, published 2022).

Like-named read-outs stand apart in the source and are kept apart here.

T5 sequence (Q9EP73 19-290): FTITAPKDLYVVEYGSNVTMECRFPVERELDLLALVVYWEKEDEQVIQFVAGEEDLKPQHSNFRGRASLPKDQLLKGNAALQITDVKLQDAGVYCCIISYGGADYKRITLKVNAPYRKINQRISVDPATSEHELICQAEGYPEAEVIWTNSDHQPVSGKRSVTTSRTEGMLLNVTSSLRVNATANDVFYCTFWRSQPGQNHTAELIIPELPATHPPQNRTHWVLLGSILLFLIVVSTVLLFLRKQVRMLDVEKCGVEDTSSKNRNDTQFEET
T6 sequence (Q9EP73 19-290): as above
Sequence of PD-L1 (Homo sapiens, UniProt Q9NZQ7) (Q9NZQ7 19-290): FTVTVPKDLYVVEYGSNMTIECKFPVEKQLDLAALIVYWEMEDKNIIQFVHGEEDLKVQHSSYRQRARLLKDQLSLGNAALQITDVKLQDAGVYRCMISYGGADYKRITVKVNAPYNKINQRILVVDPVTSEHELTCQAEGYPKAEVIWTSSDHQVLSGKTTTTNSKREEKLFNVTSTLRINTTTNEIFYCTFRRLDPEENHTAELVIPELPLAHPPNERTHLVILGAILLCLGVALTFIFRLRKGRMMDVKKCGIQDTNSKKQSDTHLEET
T4 sequence (Q9NZQ7 19-290): as above
T3 sequence (Q9NZQ7 19-238 limits assumed): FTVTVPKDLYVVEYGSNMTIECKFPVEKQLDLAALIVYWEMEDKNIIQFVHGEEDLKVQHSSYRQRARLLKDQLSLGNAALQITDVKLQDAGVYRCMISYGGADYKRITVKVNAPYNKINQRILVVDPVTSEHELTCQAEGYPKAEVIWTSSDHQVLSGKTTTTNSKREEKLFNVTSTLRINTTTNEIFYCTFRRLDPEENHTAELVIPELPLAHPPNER
Sequence of PD-L1 protein (Abcam, ab130039) (UniProt Q9EP73) (Q9EP73 19-238 limits assumed): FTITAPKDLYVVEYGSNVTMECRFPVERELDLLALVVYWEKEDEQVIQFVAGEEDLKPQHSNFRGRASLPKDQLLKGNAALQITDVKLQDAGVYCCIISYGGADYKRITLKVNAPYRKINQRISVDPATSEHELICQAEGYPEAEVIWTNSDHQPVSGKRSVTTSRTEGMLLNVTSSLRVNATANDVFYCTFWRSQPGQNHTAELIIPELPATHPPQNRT
Sequence of PD-L1 protein (Abcam, ab130039) (UniProt Q9EP73 19-238) (Q9EP73 19-238 limits assumed): as above
Excerpt for PD-1+ CD8+ T cells: (FIG. 7I) PD-1+ CD8+ T cells isolated from VV-treated MC38 tumors were cocultured with MC38 cells in the presence of purified iPDL1 or IgG. IFN-γ+ frequencies of PD-1+ T cells were shown from one of two independent experiments.

Take (S/I)MTQHLEPI [Pep7]: the IC50 – broadly, the concentration at which inhibition is half-maximal – at H-2D^b (setting [8]) is 0.078 µM; at H-2D^b (setting [9]), 0.029 µM.
As for AALLNSAGL [Pepl, AALLNSA(G/V)L], the IC50 on H-2D^b (setting [8]) was 0.003 µM; on H-2D^b (setting [9]), 0.052 µM.
Consider AQL(P/A)NDVVL [Pep2], for which the IC50 on H-2D^b (setting [8]) was 0.009 µM; at H-2D^b (setting [9]) it was 0.1 µM.
For the molecule ASMTN(R/M)ELM [Pep4], the IC50 on H-2D^b (setting [8]) is 0.002 µM; at H-2D^b (setting [9]), 0.003 µM.
As for FMACNLLLV [Pep11, FM(A/S)CNLLLV], the IC50 at H-2D^b (setting [8]) was 0.079 µM; on H-2D^b (setting [9]), 0.024 µM.
In the case of MAPIDHTAM [Pep3, MAPIDHT(A/T)M], the IC50 is 0.03 µM on H-2D^b (setting [8]) and 0.102 µM on H-2D^b (setting [9]).
Take MGGMNRRPI [Pep10, MG(G/V)MNRRPI]: the IC50 on H-2D^b (setting [8]) was 0.077 µM; at H-2D^b (setting [9]) it was 0.841 µM.
Take SAIRSYQDV [Pep8, SAIRSYQ(D/Y)V]: the IC50 is 0.035 µM on H-2D^b (setting [8]) and 0.755 µM at H-2D^b (setting [9]).
Consider SIIVFNLV [Pep5, SIIVFNL(V/L)], for which the IC50 on H-2K^b (setting [8]) is 0.008 µM; on H-2K^b (setting [9]), 0.034 µM.
Turning to SSP(D/Y)SLHYL [Pep6], the IC50 on H-2D^b (setting [8]) is 0.211 µM; at H-2D^b (setting [9]) it was 0.685 µM.
Turning to VSPVNDVDV [Pep9, VSPVND(V/L)DV], the IC50 at H-2D^b (setting [8]) was 0.044 µM; at H-2D^b (setting [9]), 0.018 µM.
In turn, “anti-PD-L1 antibody control (Biolegend, 124301)” gave a half-inhibitory concentration (IC50) in experiment [1] of 0.00453 µM.
In the case of “ihPDL1: soluble human PD-1 (extracellular) - IgG1 Fc fusion protein, human PD-L1 inhibitor, SEQ ID NO:52”, in experiment [2], the “concentration that significantly enhanced luc production in the Jurkat effector cells” value is listed as not above 10 ng/mL. Further, in the experiment with PD-1/PD-L1 interaction, the “blocking the biotin-PD1 binding to PD-L1-coated wells” value is on record as “equivalent activity to the commercial anti-PD-L1”. For the same molecule, in the experiment with PD-L1 [3], the “binding to PD-L1 (SPR)” value is listed as “specifically bind to PD-L1”. Moreover, in the experiment with PD-L1^+ tumor cells, the “binding of purified ihPDL1 to PD-L1^+ tumor cells” value is on record as “bound to PD-L1^+ tumor cells”. In addition, the “T cell activation (IFN-γ level) in MLR” value in [4] was “equivalent activity to the commercial anti-PD-L1”.

B1: iPDL1: murine soluble PD-1 extracellular domain fused with IgG1 Fc as a PD-L1 inhibitor, SEQ ID NO:2 (protein)
chain: MWVRQVPWSFTWAVLQLSWQSGWLLEVPNGPWRSLTFYPAWLTVSEGANATFTCSLSNWSEDLMLNWNRLSPSNQTEKQAAFCNGLSQPVQDARFQIIQLPNRHDFHMNILDTRRNDSGIYLCGAISLHPKAKIEESPGAELVVTERILETSTRYPSPSPKPEGRFQPRGPTIKPCPPCKCPAPNLLGGPSVFIFPPKIKDVLMISLSPIVTCVVVDVSEDDPDVQISWFVNNVEVHTAQTQTHREDYNSTLRVVSALPIQHQDWMSGKEFKCKVNNKDLPAPIERTISKPKGSVRAPQVYVLPPPEEEMTKKQVTLTCMVTDFMPEDIYVEWTNNGKTELNYKNTEPVLDSDGSYFMYSKLRVEKKNWVERNSYSCSVVHEGLHNHHTTKSFSRTPGK
modifications: Mouse
Take B1: in experiment [5] (50 μg/mL, MC38 vs PD-L1-knocked down MC38, anti-IgG Fc staining), the “binding of purified protein to PD-L1+ tumor cells” value is listed as “able to bind to PD-L1+ tumor cells, but not to PD-L1-knocked down tumor cells”. Besides, in experiment [5] (MC38 infected with VV-iPDL1/GM at MOI=0.5, anti-IgG Fc staining), the “binding of secreted iPDL1 to PD-L1 on tumor cells in cell culture” value is given as “bound to PD-L1 on the virus-infected (RFP positive) tumor cells, as well as uninfected (RFP negative) tumor cells”. Moreover, the “binding of secreted iPDL1 to PD-L1 on CD45− cells in distant tumors” value with PD-L1 [6] is on record as “also bound to PD-L1 on CD45− cells in untreated, distant tumors”. In addition, in the experiment with PD-1+ CD8+ T cells, the “IFN-γ+ frequency of PD-1+ CD8+ T cells” value is “higher IFN-γ+ frequency of PD-1+ CD8+ T cells”.

B2: iPDL1 (murine soluble PD-1 extracellular domain fused with IgG1 Fc) (Fc fusion)
chain: LEVPNGPWRSLTFYPAWLTVSEGANATFTCSLSNWSEDLMLNWNRLSPSNQTEKQAAFCNGLSQPVQDARFQIIQLPNRHDFHMNILDTRRNDSGIYLCGAISLHPKAKIEESPGAELVVTERILETSTRYPSPSPKPEGRFQPRGPTIKPCPPCKCPAPNLLGGPSVFIFPPKIKDVLMISLSPIVTCVVVDVSEDDPDVQISWFVNNVEVHTAQTQTHREDYNSTLRVVSALPIQHQDWMSGKEFKCKVNNKDLPAPIERTISKPKGSVRAPQVYVLPPPEEEMTKKQVTLTCMVTDFMPEDIYVEWTNNGKTELNYKNTEPVLDSDGSYFMYSKLRVEKKNWVERNSYSCSVVHEGLHNHHTTKSFSRTPGK
notes: detection used anti-IgG2a-Fc / anti-mouse IgG; also called soluble PD-1-Fc; soluble PD-1-IgG Fc
In experiment [7], B2 displayed an IC50 of 0.00563 µM.
